Reference: PMC7740640 (Xenobiotica; the fate of foreign compounds in biological …, 2020)
Read-outs that look alike come from different tables or passages of the source.

Tests used:
[1] = test system: human liver microsomes (HLM); assay: Inhibition of C152 metabolism, HLM; format: biochemical; details: 30 μM C152 as substrate
[2] = target: T1, CYP2B6 (Homo sapiens, UniProt P20813); assay: Inhibition of C152 metabolism, SS
T1 sequence (P20813 1-491): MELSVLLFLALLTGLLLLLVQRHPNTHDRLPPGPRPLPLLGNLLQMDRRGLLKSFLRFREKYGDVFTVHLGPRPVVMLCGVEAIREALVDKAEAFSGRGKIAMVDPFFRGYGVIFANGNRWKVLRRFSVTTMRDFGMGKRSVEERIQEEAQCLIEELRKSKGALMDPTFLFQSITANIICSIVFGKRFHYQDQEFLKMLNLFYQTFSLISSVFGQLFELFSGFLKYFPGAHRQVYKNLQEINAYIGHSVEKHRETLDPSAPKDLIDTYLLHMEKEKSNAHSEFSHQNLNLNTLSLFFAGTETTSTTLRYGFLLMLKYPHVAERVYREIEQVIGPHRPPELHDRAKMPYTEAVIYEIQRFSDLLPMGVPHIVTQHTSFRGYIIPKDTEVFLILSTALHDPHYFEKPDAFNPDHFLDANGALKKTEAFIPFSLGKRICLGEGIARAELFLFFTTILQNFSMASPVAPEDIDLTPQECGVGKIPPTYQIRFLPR

[3] = target: CYP3A4 (Homo sapiens, UniProt P08684); assay: Inhibition of C152 metabolism, SS
Chain of CYP3A4 (P08684 2-503 limits assumed): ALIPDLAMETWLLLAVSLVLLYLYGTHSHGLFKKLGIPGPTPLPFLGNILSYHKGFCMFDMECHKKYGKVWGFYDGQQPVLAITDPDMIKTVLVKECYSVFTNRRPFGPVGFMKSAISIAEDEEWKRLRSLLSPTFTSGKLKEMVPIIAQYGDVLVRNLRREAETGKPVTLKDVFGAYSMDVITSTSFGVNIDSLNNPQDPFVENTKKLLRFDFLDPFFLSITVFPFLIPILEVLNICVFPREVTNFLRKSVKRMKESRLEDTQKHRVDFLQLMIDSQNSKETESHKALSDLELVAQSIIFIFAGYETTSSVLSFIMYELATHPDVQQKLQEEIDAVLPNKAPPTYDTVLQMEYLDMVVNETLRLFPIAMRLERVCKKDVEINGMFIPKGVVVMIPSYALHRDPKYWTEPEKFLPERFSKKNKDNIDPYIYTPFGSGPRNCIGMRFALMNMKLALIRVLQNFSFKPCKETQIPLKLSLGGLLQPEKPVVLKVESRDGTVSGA

[4] = target: CYP2C19 (Homo sapiens, UniProt P33261); assay: Inhibition of C152 metabolism, SS
Chain of CYP2C19 (P33261 whole entry): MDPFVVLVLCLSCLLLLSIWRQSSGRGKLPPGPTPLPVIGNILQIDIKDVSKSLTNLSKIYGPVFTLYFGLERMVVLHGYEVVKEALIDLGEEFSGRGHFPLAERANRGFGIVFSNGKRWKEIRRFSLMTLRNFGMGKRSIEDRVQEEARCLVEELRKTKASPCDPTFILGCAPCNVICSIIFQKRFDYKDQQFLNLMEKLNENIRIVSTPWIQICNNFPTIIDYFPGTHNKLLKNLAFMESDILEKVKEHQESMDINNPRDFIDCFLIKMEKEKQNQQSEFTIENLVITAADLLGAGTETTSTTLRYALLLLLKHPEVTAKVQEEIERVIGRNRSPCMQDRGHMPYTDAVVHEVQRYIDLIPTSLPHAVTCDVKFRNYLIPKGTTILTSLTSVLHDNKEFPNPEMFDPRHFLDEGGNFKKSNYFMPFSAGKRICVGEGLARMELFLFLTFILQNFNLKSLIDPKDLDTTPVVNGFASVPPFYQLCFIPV

[5] = target: T2, CYP1A2 (Homo sapiens, UniProt P05177); assay: C152 metabolism; format: in vitro ADME; details: SS(1A2); initial substrate C152 28 μM; scanning fluorimetry
T2 sequence (P05177 2-516 limits assumed): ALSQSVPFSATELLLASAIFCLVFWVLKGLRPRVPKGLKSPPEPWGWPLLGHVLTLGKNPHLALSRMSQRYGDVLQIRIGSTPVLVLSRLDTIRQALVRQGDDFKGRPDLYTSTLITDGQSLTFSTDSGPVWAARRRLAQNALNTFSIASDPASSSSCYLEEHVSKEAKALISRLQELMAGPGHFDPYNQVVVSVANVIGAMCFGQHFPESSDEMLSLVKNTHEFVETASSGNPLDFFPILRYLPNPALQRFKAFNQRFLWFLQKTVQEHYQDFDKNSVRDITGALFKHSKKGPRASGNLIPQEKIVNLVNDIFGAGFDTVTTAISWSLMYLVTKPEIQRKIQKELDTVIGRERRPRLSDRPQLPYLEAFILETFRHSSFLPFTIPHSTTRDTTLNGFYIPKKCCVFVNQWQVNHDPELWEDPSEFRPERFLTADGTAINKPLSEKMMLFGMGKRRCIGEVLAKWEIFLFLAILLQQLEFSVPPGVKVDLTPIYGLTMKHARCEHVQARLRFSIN

[6] = SS(2B6), 30 μM C152 as substrate
[7] = SS(3A4), 30 μM C152 as substrate

Compound | IC50 [1] | Inhibition (maximal amplitude) [1] | IC50 [2] | IC50 [4] | further results
CC[C@@]1(c2ccccc2)NC(=O)N(Cc2ccccc2)C1=O [BNVL, (S)-(+)-N-3-benzylnirvanol] | 0.51 ± 0.03 µM | – | – | – | IC50 [2, 6]: 8.5 ± 2.3 µM; Inhibition (maximal amplitude) [2, 6]: 81±7%; IC50 [3, 7]: 27 ± 3 µM; Inhibition (maximal amplitude) [3, 7]: 59±10%
Clc1ccc(Cc2ccncc2)cc1 [CBP, 4-(4-Chlorobenzyl)pyridine] | 225 ± 30 µM | 88±12% | 0.038 ± 0.016 µM | 215 ± 118 µM | IC50 [3]: 225 ± 73 µM
Clc1ccccc1C(c1ccccc1)(c1ccccc1)n1ccnc1 [CTZ, clotrimazole] | – | – | – | 0.2 ± 0.11 µM | –
CNc1ccc2c(C(F)(F)F)cc(=O)oc2c1 [DC152, 7-methylamino-4-trifluoromethyl coumarin] | – | – | – | – | maximal level of formation of DC152 [5]: ~ 4 μM
CC(=O)N1CCN(c2ccc(OCC3COC(Cn4ccnc4)(c4ccc(Cl)cc4Cl)O3)cc2)CC1 (stereo not drawn) [KCZ, ketoconazole] | 1.9 ± 0.2 µM | 89±7% | 9.5 ± 2.8 µM | – | –
